Where a SMILES comes first, the peptide text is derived from it. Bridges are numbered along the chain shown (N, C = ends). [ ]: non-standard residue; d: D form. The star is where a group is joined. Ileψ(thiazoline)Cys = CC[C@H](C)[C@H](N)C1=N[C@H](C(=O)*)CS1; dOrn = NCCC[C@@H](N)C(=O)O
Key:
[1] = target: T1, Cathepsin G (Homo sapiens, UniProt P08311); format: tissue-based; conditions: neutrophil;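 also: inhibition of Cathepsin G enzyme activity, tested on an AMC-conjugated peptide substrate; in other assays of this panel Not Active means under 50% inhibition at 10 µM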
T1 sequence (P08311 whole entry): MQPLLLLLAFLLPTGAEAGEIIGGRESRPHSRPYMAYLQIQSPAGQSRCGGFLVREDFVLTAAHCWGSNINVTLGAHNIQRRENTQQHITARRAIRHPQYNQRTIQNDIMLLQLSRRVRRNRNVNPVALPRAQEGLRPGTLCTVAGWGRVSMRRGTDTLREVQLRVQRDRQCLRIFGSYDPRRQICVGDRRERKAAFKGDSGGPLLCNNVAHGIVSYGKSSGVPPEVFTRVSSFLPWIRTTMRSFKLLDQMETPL

[2] = target: Platelet-activating factor receptor (Homo sapiens, UniProt P25105); assay: biochemical; format: tissue-based; conditions: platelet; also: in other assays of this panel Not Active means under 50% inhibition at 10 µM
Platelet-activating factor receptor, sequence (P25105 whole entry): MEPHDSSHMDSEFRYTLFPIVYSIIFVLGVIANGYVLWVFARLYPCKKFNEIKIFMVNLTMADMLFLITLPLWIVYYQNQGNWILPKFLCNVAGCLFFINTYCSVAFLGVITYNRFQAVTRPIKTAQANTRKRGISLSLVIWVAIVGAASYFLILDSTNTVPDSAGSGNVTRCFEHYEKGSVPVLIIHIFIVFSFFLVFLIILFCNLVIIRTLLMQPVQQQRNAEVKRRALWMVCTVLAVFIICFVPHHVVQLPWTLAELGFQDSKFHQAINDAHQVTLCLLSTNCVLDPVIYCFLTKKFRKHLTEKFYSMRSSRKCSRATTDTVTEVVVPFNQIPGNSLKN

[3] = target: T2, Neuropeptide Y receptor type 2 (Homo sapiens, UniProt P49146); format: cell membranes, Membrane; conditions: kan-ts; also: in other assays of this panel Not Active means under 50% inhibition at 10 µM
T2 sequence (P49146 whole entry): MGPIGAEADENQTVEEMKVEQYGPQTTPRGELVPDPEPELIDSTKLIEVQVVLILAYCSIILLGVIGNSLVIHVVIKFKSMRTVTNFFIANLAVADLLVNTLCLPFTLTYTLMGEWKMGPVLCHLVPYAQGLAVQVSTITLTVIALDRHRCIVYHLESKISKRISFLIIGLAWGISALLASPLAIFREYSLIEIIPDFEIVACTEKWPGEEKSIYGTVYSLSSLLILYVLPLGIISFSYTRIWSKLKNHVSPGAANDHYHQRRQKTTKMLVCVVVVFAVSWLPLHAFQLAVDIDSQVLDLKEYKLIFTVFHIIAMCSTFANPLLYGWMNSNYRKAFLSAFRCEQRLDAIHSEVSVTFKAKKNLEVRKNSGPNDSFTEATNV

[4] = target: Sodium-dependent noradrenaline transporter (Homo sapiens, UniProt P23975); assay: DRUGMATRIX: Norepinephrine Transporter radioligand binding (ligand: [125I] RTI-55); format: cell membranes, MDCK, Membrane; conditions: Not Active = under 50% inhibition at 10 µM
Sodium-dependent noradrenaline transporter, sequence (P23975 whole entry): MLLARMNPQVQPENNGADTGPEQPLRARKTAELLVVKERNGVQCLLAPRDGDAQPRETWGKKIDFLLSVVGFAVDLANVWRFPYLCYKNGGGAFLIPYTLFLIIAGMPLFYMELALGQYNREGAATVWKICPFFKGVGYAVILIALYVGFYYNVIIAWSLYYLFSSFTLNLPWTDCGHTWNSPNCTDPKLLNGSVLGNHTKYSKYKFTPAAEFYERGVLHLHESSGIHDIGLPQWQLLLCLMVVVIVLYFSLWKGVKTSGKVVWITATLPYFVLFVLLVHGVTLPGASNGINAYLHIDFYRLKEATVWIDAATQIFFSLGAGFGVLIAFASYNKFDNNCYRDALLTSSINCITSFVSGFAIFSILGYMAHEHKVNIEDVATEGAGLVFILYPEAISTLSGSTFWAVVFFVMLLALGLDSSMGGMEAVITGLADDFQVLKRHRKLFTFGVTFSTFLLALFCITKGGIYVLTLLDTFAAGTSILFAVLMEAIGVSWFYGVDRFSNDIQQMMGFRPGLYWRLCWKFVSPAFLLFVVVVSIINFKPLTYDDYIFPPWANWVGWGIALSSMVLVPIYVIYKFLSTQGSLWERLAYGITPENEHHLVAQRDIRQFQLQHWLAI

[5] = target: T3, Muscarinic acetylcholine receptor M5 (Homo sapiens, UniProt P08912); format: cell membranes, CHO-K1, Membrane; conditions: cho-k1; also: in other assays of this panel Not Active means under 50% inhibition at 10 µM
T3 sequence (P08912 whole entry): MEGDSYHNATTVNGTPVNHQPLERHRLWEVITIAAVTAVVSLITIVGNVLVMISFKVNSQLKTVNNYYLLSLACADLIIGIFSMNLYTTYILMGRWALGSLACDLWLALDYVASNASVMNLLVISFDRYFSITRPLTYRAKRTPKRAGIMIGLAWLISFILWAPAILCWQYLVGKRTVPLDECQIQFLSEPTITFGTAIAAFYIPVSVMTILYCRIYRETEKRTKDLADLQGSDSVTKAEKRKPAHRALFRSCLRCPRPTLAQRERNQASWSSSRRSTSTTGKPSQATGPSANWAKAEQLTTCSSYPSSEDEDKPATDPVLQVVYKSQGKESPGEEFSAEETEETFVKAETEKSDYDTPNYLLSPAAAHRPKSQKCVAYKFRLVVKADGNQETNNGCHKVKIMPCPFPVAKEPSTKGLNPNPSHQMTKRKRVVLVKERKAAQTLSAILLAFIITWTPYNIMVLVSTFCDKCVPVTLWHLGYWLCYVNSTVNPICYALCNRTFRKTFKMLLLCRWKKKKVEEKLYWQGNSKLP

[6] = target: Glycine receptor (Rattus norvegicus, UniProt P22771+P24524+P07727+P20781); format: cell membranes, Wistar, Spinal cord, Membrane; also: in other assays of this panel Not Active means under 50% inhibition at 10 µM
[7] = target: T4, Receptor-type tyrosine-protein phosphatase C (Homo sapiens, UniProt P08575); parameters: species or system Escherichia coli
T4 sequence (P08575 whole entry): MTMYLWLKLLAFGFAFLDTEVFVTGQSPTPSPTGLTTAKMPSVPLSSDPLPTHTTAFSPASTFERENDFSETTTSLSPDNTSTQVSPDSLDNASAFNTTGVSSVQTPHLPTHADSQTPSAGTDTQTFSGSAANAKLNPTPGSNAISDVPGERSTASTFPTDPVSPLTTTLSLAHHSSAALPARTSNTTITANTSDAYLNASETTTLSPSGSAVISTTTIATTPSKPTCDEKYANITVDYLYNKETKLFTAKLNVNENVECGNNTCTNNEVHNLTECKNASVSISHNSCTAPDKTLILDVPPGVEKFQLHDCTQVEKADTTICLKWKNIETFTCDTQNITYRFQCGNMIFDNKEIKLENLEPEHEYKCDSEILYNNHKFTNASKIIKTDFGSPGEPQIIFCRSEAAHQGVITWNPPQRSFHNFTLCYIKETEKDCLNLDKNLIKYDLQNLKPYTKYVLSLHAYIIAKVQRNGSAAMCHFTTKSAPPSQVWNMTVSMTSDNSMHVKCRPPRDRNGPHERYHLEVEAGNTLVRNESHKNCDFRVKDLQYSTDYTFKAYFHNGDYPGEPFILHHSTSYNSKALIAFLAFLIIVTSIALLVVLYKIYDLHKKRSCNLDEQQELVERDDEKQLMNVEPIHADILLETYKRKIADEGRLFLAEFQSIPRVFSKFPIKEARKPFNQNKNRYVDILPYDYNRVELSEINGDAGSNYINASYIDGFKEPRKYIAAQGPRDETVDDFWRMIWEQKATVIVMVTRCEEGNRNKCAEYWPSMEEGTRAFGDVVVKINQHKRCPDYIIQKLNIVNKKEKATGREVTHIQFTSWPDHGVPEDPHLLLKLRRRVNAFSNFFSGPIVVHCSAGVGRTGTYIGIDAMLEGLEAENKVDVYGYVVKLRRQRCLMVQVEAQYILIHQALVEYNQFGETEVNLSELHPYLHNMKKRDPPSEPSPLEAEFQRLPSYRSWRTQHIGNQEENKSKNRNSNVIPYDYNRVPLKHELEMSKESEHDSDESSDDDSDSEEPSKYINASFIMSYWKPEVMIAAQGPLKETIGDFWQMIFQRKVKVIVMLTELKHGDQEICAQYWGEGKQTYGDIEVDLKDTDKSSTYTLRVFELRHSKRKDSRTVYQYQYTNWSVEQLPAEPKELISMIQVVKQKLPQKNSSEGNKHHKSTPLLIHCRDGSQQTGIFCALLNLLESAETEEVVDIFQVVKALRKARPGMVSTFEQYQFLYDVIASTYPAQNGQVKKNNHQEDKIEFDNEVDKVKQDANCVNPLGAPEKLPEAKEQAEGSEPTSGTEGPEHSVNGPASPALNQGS

Compound | IC50 [1] | IC50 [2] | IC50 [3] | IC50 ([4]; mdck) | IC50 [5] | IC50 [6] | IC50 [7] | IC50 ([4]; read-out: IC50) [nM] | Ki ([4]; read-out: Ki) [nM]
O=C1OC2(c3ccc(O)cc3Oc3cc(O)ccc32)c2ccccc21 [FLUORESCEIN] | Not Active | Not Active | Not Active | Not Active | Not Active | Not Active | Not Active |  | 
COc1ccc([C@@H]2Sc3ccccc3N(CCN(C)C)C(=O)[C@@H]2OC(C)=O)cc1 [DILTIAZEM] | Not Active | Not Active | Not Active | Not Active | Not Active | Not Active | Not Active |  | 
O=C1OCCN1/N=C/c1ccc([N+](=O)[O-])o1 [FURAZOLIDONE] | Not Active | Not Active | Not Active | Not Active | Not Active | Not Active | Not Active |  | 
CC(C)(S)[C@@H](N)C(=O)O [PENICILLAMINE] | Not Active | Not Active | Not Active | Not Active | Not Active | Not Active | Not Active |  | 
Cc1ccccc1N1CCN(CCc2nnc3n2CCCC3)CC1 [DAPIPRAZOLE] | Not Active | Not Active | Not Active | Not Active | Not Active | Not Active | Not Active |  | 
CC[C@H](C)[C@H](N)C1=N[C@H](C(=O)N[C@@H](CC(C)C)C(=O)N[C@H](CCC(=O)O)C(=O)N[C@H](C(=O)N[C@H]2CCCCNC(=O)[C@H](CC(N)=O)NC(=O)[C@@H](CC(=O)O)NC(=O)[C@H](Cc3cnc[nH]3)NC(=O)[C@@H](Cc3ccccc3)NC(=O)[C@H]([C@@H](C)CC)NC(=O)[C@@H](CCCN)NC2=O)[C@@H](C)CC)CS1 [BACITRACIN] ({Ileψ(thiazoline)Cys}-L[dE]IK[dOrn]I[dF]H[dD]N; lactam 4-C) | Not Active | Not Active | Not Active | Not Active | Not Active | Not Active | Not Active |  | 
Oc1c(Cl)cc(Cl)cc1Sc1cc(Cl)cc(Cl)c1O [BITHIONOL] | Not Active | Not Active | Not Active |  | Not Active | Not Active | Not Active | 1240 | 1230
CC(/C=C1\SC(=S)N(CC(=O)O)C1=O)=C\c1ccccc1 | Not Active | Not Active | Not Active | Not Active | Not Active | Not Active | Not Active |  | 
CC(=O)O[C@]1(C(C)=O)CC[C@H]2[C@@H]3C=C(Cl)C4=CC(=O)CC[C@]4(C)[C@H]3CC[C@@]21C [CHLORMADINONE ACETATE] | Not Active | Not Active | Not Active | Not Active | Not Active | Not Active | Not Active |  | 
CN1CCC[C@H]1c1cccnc1 [NICOTINE] | Not Active | Not Active | Not Active | Not Active | Not Active | Not Active | Not Active |  | 
NCC[C@H](O)C(=O)N[C@@H]1C[C@H](N)[C@@H](O[C@H]2O[C@H](CN)[C@@H](O)[C@H](O)[C@H]2O)[C@H](O)[C@H]1O[C@H]1O[C@H](CO)[C@@H](O)[C@H](N)[C@H]1O [AMIKACIN] | Not Active | Not Active | Not Active | Not Active | Not Active | Not Active | Not Active |  | 
C=C1C(=O)O[C@@H]2C3O[C@]3(C)CC/C=C(\C)CC[C@@H]12 (stereo not given in full) | Not Active | Not Active | Not Active | Not Active | Not Active | Not Active | Not Active |  | 
NCC1(CC(=O)O)CCCCC1 [GABAPENTIN] | Not Active | Not Active | Not Active | Not Active | Not Active | Not Active | Not Active |  | 
Brc1ccccc1 [BROMOBENZENE] | Not Active | Not Active | Not Active | Not Active | Not Active | Not Active | Not Active |  | 
CC(=O)CCCCn1c(=O)c2c(ncn2C)n(C)c1=O [PENTOXIFYLLINE] | Not Active | Not Active | Not Active | Not Active | Not Active | Not Active | Not Active |  | 
Cc1c(-c2ccccc2)oc2c(C(=O)OCCN3CCCCC3)cccc2c1=O [FLAVOXATE] | Not Active | Not Active | Not Active | Not Active | Not Active | Not Active | Not Active |  | 
C/C=C1\[C@H]2C=C(C)C[C@]1(N)c1ccc(=O)[nH]c1C2 [HUPERZINE A] | Not Active | Not Active | Not Active | Not Active | Not Active | Not Active | Not Active |  | 

From ChEMBL document CHEMBL1909046, “DrugMatrix in vitro pharmacology data”
